Source: publication PMC10508264, “Exploring the antioxidant, antimicrobial, cytotoxic and biothermodynamic properties of novel morpholine derivative bioactive Mn(II), Co(II) and Ni(II) complexes – combined experimental and theoretical measurements towards DNA/BSA/SARS-CoV-2 3CL^Pro” (RSC Medicinal Chemistry, 2023)

Assays:
[1] = system: CT-DNA; assay: DNA binding by viscometric (hydrodynamic) technique
Description: The hydrodynamic properties were measured using an Ostwald viscometer with the help of a thermostat (25 ± 0.1 °C). The specific viscosity of DNA was also measured in the presence and absence of the test samples.[13,30]
Generally, when the major/minor groove binding, electrostatic, partial, and non-classical interaction modes are involved between chemical substances and DNA base pairs, the final DNA relative viscosity remains unchanged or undergoes a very negligible change due to reducing the contour length of DNA. When the intercalation binding modes are involved between a chemical substance and DNA base pairs via π–π stacking interactions and hydrophobic forces, an increase in relative viscosity is noted due to a rise in the contour length of DNA. Moreover, for the purpose of observing alterations in the CT-DNA helical structure, the viscosity findings for CT-DNA, various concentrations of chemical substances present, and EtBr were recorded. It was also noted that the absolute viscosity rose consistently along with the incremental concentration of each substance at the fixed DNA concentration. As a result of the strong binding mode of intercalation, the contour length of the double-helix DNA rises.[72] The obtained results are also compared with those of the classical intercalator (EB). The affinity interaction and their slope values were observed from the relative specific viscosity (η/η0)^1/3 plotted as a straight line contrasting [compound]/[DNA] and absolute specific viscosity of DNA in the presence or absence of chemical substances was evaluated using eqn (11) (Table 3). In the experiment, it was clearly noted that the slope values for all samples increased due to the rising binding affinity. The evaluated slopes were in the following sequence: (EB) 1.215 > (2) 0.860 > (3) 0.801 > (1) 0.662 > (HL) 0.490 (Fig. S21 ^† and Table 3). […] Due to the existence of 2,2′-bipyridine and the morpholine-fused aromatic planar systems, compounds can interact with DNA robustly via intercalation. The outcomes agreed with the observed outcomes of electronic absorption spectral characteristics.
11 [drawing 21] where η and η0 represent the specific viscosity of DNA in the presence of the complex and the specific viscosity of DNA alone, t0, tDNA and tcomplex represent the average flow time of the Tris–HCl buffer solution, the average flow time of the DNA alone solution, and the average flow time of DNA interacted with the samples, respectively. Error limit ± 2.5% (P < 0.025). […]
2.2.4. Assessment of DNA affinity by hydrodynamic technique
Hydrodynamic properties were performed using an Ostwald viscometer with the help of a thermostat (25 ± 0.1 °C). The experiment was performed of all samples, including ethidium bromide at various concentrations (20, 40, 60, 80, 100 µM) and each test compound was mixed with the deoxyribonucleic acid solution (100 µM) in the Ostwald viscometer. With a help of digital stopwatch, average flow time was gauged three times for each addition, and the specific viscosity of deoxyribonucleic acid was also measured in the presence and absence of test samples. […]
Also, the emission spectral titration for all compounds was also carried out at a fixed concentration (25 μM) of BSA with an incremental concentration of substances (0–25 µM)

[2] = biological target: BSA (Bos taurus, UniProt P02769); assay: FRET computation, donor (BSA)–acceptor (compound); format: binding, bovine; design: kET (rate of energy transfer): unit not given here; conditions: for B (average brightness of complex–BSA system): free BSA 6573.60
Description: The critical distance between donor and acceptor molecules can be estimated using the FRET approach to assess the binding affinity between BSA and a test substance.[13,33–35]
FRET is a non-destructive spectroscopic method consisting of a process between several electronic excited states of molecules that is dependent on distance (r). FRET can also be employed to distinguish the relative angular orientation and closeness of fluorophores.[82] The process happens when there is a large overlap between the absorption spectrum acceptor (compound/chromophore) and the donor's emission spectrum (BSA/fluorophore) (Fig. S30 ^†). Also, the average distance (r) between the donor and acceptor can be measured in accordance with this theory. Fluorescence is quenched due to energy being transmitted from the excited state of BSA to the substances (HL)/(1–3). As a result of the FRET analysis, the observed r findings were in the range of 2.4127–2.7129 nm (Table 5 and Fig. S30 ^†). […] The following conditions have a major impact on the effectiveness of FRET: (i) the distance (r) should be in the prescribed range of 2–8 nm for energy transfer; (ii) there is a large overlap between the emission spectrum of biomolecules (donors) and the electronic absorption spectrum of acceptors (substances); and (iii) the BSA and compound transition dipoles are oriented correctly. BSA transmits excitation energy to a compound during FRET without emitting a photon from the previous molecule system. Energy transfer (E) results were acquired from eqn (18) (Table 5). K^2 is associated with the geometry of the BSA and complex of the dipoles, the value for random orientation (K2 = 2/3) as in a fluid solution. Basically, the K^2 values were found in the range from 0 to 4, and energy can be transferred from BSA to the compound when electrons are transferred between the two molecules. For parallel transition dipoles that are aligned, K^2 is equal to 4, which denotes maximal energy transfer; and when the orientation of the dipoles is perpendicular to one another, K^2 is equal to 0, which denotes very weak energy transfer. When the relative orientation of the dipoles is random, K^2 is equal to 2/3. Eqn (20) is helpful for measuring the J values for overlap of the emission spectrum of BSA with the electronic absorption spectrum of the compound. The molar absorption coefficient (εA) and fluorescence emission intensity were both measured on the unit area scale of wavenumbers. It is imperative that J, after being normalized, is independent of the real size of εA. The following variables for the complex–BSA interaction are determined using eqn (18)–(23), n = 1.36, Φ = 0.15, E = 0.3462–0.5692, J = 0.8215–1.0886 × 10^−14 cm^3 L mol^−1, R0 = 2.4400–2.5573 nm, r = 2.4127–2.7129 nm, kET = 5.2941–13.2142 J s^−1 and B = 5339.79–6007.23 mol^−1 cm^−1 (Table 5). The observed values of R0 and r between BSA Trp213 and the interacting compound were substantially smaller than 8 nm and their relationships are found in the following sequence: 0.5R0 (1.2200–1.2786) < r (2.4127–2.7128) < 1.5R0 (3.6601–3.8358). […] Also, τ is denoted as the lifetime of fluorescence emission of the biomolecule and is described as the inverse of the entire degradation rate τ = 1/(kr + knr). The radiative lifetime of the fluorophore is represented as τ0 = 1/kr. The values of τ and Φ are associated with eqn (21) (Table 5). Quenching occurs when the ground or excited states of BSA come into contact with a compound in the solution. The intensity of fluorescence emission is also decreasing. Quenching is divided into the two main categories of dynamic and static quenching. While BSA is in an excited state, it binds with the substance during a dynamic or collisional quenching mechanism, and is then deactivated to the ground state without the emission of radiation. Therefore, the concentration of the quenching compounds affects dynamic quenching. The τ and Φ values for BSA diminish with an increase in the compound concentration. […]

In the case of `[Mn+2].[O-]c1ccccc1N=Cc1ccc(N2CCOCC2)cc1.[O-]c1ccccc1N=Cc1ccc(N2CCOCC2)cc1.c1ccc(-c2ccccn2)nc1` [(1)], the “Slope of (η/η0)^1/3 vs [compound]/[DNA]” value [1] is reported as 0.662, the “Relative specific viscosity (η/η0)^1/3” value ([1]; [complex]/[DNA] = 0.2) is reported as 0.66 and the “Relative specific viscosity (η/η0)^1/3” value ([1]; [complex]/[DNA] = 0.4) is reported as 0.78. The “Relative specific viscosity (η/η0)^1/3” value ([1]; [complex]/[DNA] = 0.6) was 0.88, the “Relative specific viscosity (η/η0)^1/3” value ([1]; [complex]/[DNA] = 0.8) was 1.02 and the “Relative specific viscosity (η/η0)^1/3” value ([1]; [complex]/[DNA] = 1.0) was 1.12. For the same molecule, the “E (efficiency of energy transfer)” value [2] was 0.4462, the “J (spectral overlap integral)” value [2] was 1.0886 × 10^−14 (LM^−1 cm^3) and the “R0 (Förster radius)” value [2] was 2.5573 nm. The “kET (rate of energy transfer)” value [2] was 8.0556, the “r (donor–acceptor distance)” value [2] was 2.6511 nm and the “B (average brightness of complex–BSA system)” value [2] was 6007.23 M⁻¹ cm⁻¹.
`[Co+2].[O-]c1ccccc1N=Cc1ccc(N2CCOCC2)cc1.[O-]c1ccccc1N=Cc1ccc(N2CCOCC2)cc1.c1ccc(-c2ccccn2)nc1` [(2)] was tested, and the “Slope of (η/η0)^1/3 vs [compound]/[DNA]” value [1] was 0.860, the “Relative specific viscosity (η/η0)^1/3” value ([1]; [complex]/[DNA] = 0.2) was 0.77 and the “Relative specific viscosity (η/η0)^1/3” value ([1]; [complex]/[DNA] = 0.4) was 0.88. For the same molecule, the “Relative specific viscosity (η/η0)^1/3” value ([1]; [complex]/[DNA] = 0.6) was 1.05, the “Relative specific viscosity (η/η0)^1/3” value ([1]; [complex]/[DNA] = 0.8) was 1.18 and the “Relative specific viscosity (η/η0)^1/3” value ([1]; [complex]/[DNA] = 1.0) was 1.48. For the same molecule, the “E (efficiency of energy transfer)” value [2] was 0.5000, the “J (spectral overlap integral)” value [2] was 1.0201 × 10^−14 (LM^−1 cm^3) and the “R0 (Förster radius)” value [2] was 2.5297 nm. For the same molecule, the “kET (rate of energy transfer)” value [2] was 10.000, the “r (donor–acceptor distance)” value [2] was 2.5297 nm and the “B (average brightness of complex–BSA system)” value [2] was 5835.99 M⁻¹ cm⁻¹.
With `[Ni+2].[O-]c1ccccc1N=Cc1ccc(N2CCOCC2)cc1.[O-]c1ccccc1N=Cc1ccc(N2CCOCC2)cc1.c1ccc(-c2ccccn2)nc1` [(3)] the “Slope of (η/η0)^1/3 vs [compound]/[DNA]” value [1] was 0.801, the “Relative specific viscosity (η/η0)^1/3” value ([1]; [complex]/[DNA] = 0.2) was 0.71 and the “Relative specific viscosity (η/η0)^1/3” value ([1]; [complex]/[DNA] = 0.4) was 0.86. For the same molecule, the “Relative specific viscosity (η/η0)^1/3” value ([1]; [complex]/[DNA] = 0.6) was 0.92, the “Relative specific viscosity (η/η0)^1/3” value ([1]; [complex]/[DNA] = 0.8) was 1.11 and the “Relative specific viscosity (η/η0)^1/3” value ([1]; [complex]/[DNA] = 1.0) was 1.31. For the same molecule, the “E (efficiency of energy transfer)” value [2] was 0.5692, the “J (spectral overlap integral)” value [2] was 1.0145 × 10^−14 (LM^−1 cm^3) and the “R0 (Förster radius)” value [2] was 2.5274 nm. The “kET (rate of energy transfer)” value [2] was 13.2142, the “r (donor–acceptor distance)” value [2] was 2.4127 nm and the “B (average brightness of complex–BSA system)” value [2] was 5822.04 M⁻¹ cm⁻¹.
`Oc1ccccc1N=Cc1ccc(N2CCOCC2)cc1` [(HL), 2-(4-morpholinobenzylideneamino)phenol] was tested, and the “Slope of (η/η0)^1/3 vs [compound]/[DNA]” value [1] was 0.490, the “Relative specific viscosity (η/η0)^1/3” value ([1]; [complex]/[DNA] = 0.2) was 0.61 and the “Relative specific viscosity (η/η0)^1/3” value ([1]; [complex]/[DNA] = 0.4) was 0.67. The “Relative specific viscosity (η/η0)^1/3” value ([1]; [complex]/[DNA] = 0.6) was 0.75, the “Relative specific viscosity (η/η0)^1/3” value ([1]; [complex]/[DNA] = 0.8) was 0.85 and the “Relative specific viscosity (η/η0)^1/3” value ([1]; [complex]/[DNA] = 1.0) was 1.01. For the same molecule, the “E (efficiency of energy transfer)” value [2] was 0.3462, the “J (spectral overlap integral)” value [2] was 0.8215 × 10^−14 (LM^−1 cm^3) and the “R0 (Förster radius)” value [2] was 2.4400 nm. For the same molecule, the “kET (rate of energy transfer)” value [2] was 5.2941, the “r (donor–acceptor distance)” value [2] was 2.7129 nm and the “B (average brightness of complex–BSA system)” value [2] was 5339.79 M⁻¹ cm⁻¹.
